A short description of series [1]: PSS uptake by hydrated and non-hydrated Proclear lenses. The series is classed as physicochemical.
Series [2] can be described thus: Drug uptake by dry vs wet (hydrated) Proclear lenses after autoclave. The series is classed as physicochemical. As to conditions: for % Δ Dry vs Wet (drug uptake): Proclear lens; for Drug Uptake, Wet Lens: hydrated Proclear lens; for Drug Uptake, Wet Lens / Drug Uptake, Dry Lens: autoclaved, n=3; for Drug Uptake, Dry Lens: non-hydrated Proclear lens. The procedure: The ability of hydrated and non-hydrated (dry) Proclear lenses to take up olopatadine, ketotifen, and cromolyn was evaluated. At physiological pH, olopatadine is zwitterionic, ketotifen is positively charged, and cromolyn is negatively charged. […] The dry lenses were removed from their original molds, packaged with 3 ml of each drug solution without any intermediate hydration step and autoclaved. For controls, each drug solution was packaged without a lens and autoclaved. After autoclave, the amount of drug in each packaging solution was measured by HPLC.

Series [3] has as its system Serratia marcescens. Nature of the series: Antimicrobial activity of εPLL-packaged Proclear lenses. The series is classed as cell-based. As to the method:
(§1) For example, hydrated Proclear contact lenses were packaged and autoclaved in PBS having an ionic strength of about 0.2 and comprising 500 ppm εPLL, an antimicrobial peptide. These lenses took up an average of 5 μg of the εPLL/lens. […] Thus, in various examples, the packaging solution has an ionic strength of less than about 0.15, 0.10, or 0.05 as calculated by the equation: […]

A short description of series [4]: εPLL uptake by non-hydrated Proclear lenses in different buffers. It counts as physicochemical. Conditions: dry Proclear lens, autoclaved, n=3. As to the method: The uptake and release of εPLL from non-hydrated (i.e. dry) Proclear lenses was evaluated. The εPLL (Chisso Corporation, Tokyo, Japan) was prepared at a concentration of 500 ppm in three different buffers, PBS, TRIS buffered saline (0.023% tris(hydroxymethyl)methylamine, 0.544% trizma hydrochloride, 0.819% NaCl; TBS), or Tris-sorbitol. Lenses were individually packaged, in triplicate, in 1.2 ml of each εPLL preparation and autoclaved. Additionally, vials containing 1.2 ml 500 ppm εPLL in each buffer with no lens (control vials) were also autoclaved. The amounts of εPLL present in the post-autoclave solution of the test lens vials and in the control vial were determined by cationic size exclusion chromatography using a sample injection volume of 5 μl, a Water Acquity UPLC BEH 125 SEC 1.7 μm 4.6×150 mm at room temperature, and a flow rate of 0.4 ml/min using 90% 0.2M NaCl/0.1% TFA in H20: 10% ACN isocratically. The average of the amount of εPLL taken up by each test lens (n=3) was calculated by subtracting the amount of εPLL present in the post-autoclave solution of the test lens vial from the amount of εPLL present in the control vial. Lenses packaged with 500 ppm εPLL in PBS took up an average of 88 μg εPLL. Lenses packaged with 500 ppm εPLL in TBS took up 47 μg εPLL, and lenses packaged with 500 ppm εPLL in Tris-sorbitol took up 208 μg εPLL.

Series [5] is described as follows: εPLL uptake by hydrated Proclear lenses, packaging solutions of different ionic strength. It counts as physicochemical. The procedure:
as §1

The mark [6] stands for this setting: high concentration: 250 μg/ml ketotifen, 1000 μg/ml olopatadine, 2000 μg/ml cromolyn.
Setting [7] is: low concentration: 25 μg/ml ketotifen, 200 μg/ml olopatadine, 400 μg/ml cromolyn.
[8] abbreviates: high concentration: 250 μg/ml ketotifen (borate buffer), 1000 μg/ml olopatadine (PBS), 2000 μg/ml cromolyn (PBS).
[9] abbreviates: low concentration: 25 μg/ml ketotifen (borate buffer), 200 μg/ml olopatadine (PBS), 400 μg/ml cromolyn (PBS).

Regarding `C=Cc1ccc(S(=O)(=O)[O-])cc1.[Na+]` [compound 206, styrene sulfonate], in series [1] (Proclear lens), the “uptake by dry lens compared to wet lens” value was “significantly more”. In addition, in series [1] (Proclear lens, 0.01 mole/liter PSS, 48 hours), the “% Δ Dry vs Wet (uptake)” value came to 16%. Also, the “Uptake, Wet Lens” value in series [1] (hydrated Proclear lens, 0.01 mole/liter PSS, 48 hours, n=3) was determined as 92 µg. The “Uptake, Dry Lens” value in series [1] (non-hydrated Proclear lens, 0.01 mole/liter PSS, 48 hours, n=3) amounted to 110 µg.
Take `CN1CCC(=C2c3ccccc3CC(=O)c3sccc32)CC1` [ketotifen]: the entries for the “% Δ Dry vs Wet (drug uptake)” value in series [2] (setting [6]) and in series [2] (setting [7]) were −6% and −17%, respectively. The entries for the “Drug Uptake, Wet Lens” value in series [2] (setting [8]) and in series [2] (setting [9]) were 122 µg and 12 µg, respectively. Moreover, the “Drug Uptake, Dry Lens” value amounted to 115 µg in series [2] (setting [8]) and 10 µg in series [2] (setting [9]).
On to `CN(C)CC/C=C1/c2ccccc2COc2ccc(CC(=O)O)cc21` [olopatadine], for which the “% Δ Dry vs Wet (drug uptake)” value in series [2] (setting [6]) came out at 6%; in series [2] (setting [7]) it was 16%. Moreover, the “Drug Uptake, Wet Lens” value in series [2] (setting [8]) worked out at 202 µg; in series [2] (setting [9]) it was 45 µg. The “Drug Uptake, Dry Lens” value in series [2] (setting [8]) came to 215 µg; in series [2] (setting [9]), 52 µg.
Consider epsilon polylysine [εPLL], for which the “antimicrobial activity against Serratia marcescens” value in series [3] (Proclear lenses autoclaved in PBS with 500 ppm εPLL) is reported as “no antimicrobial activity”. The “kill of Serratia marcescens” value in series [3] (Proclear lenses autoclaved in TRIS buffer with 2% sorbitol with εPLL) is given as approximately 4 log. In addition, the “εPLL uptake (average)” value in series [4] (500 ppm εPLL in PBS) is 88 µg; in series [5] (hydrated Proclear lenses autoclaved in PBS, ionic strength about 0.2, 500 ppm εPLL) it was 5 μg/lens; in series [5] (hydrated Proclear lenses autoclaved in TRIS buffer with 2% sorbitol, ionic strength about 0.02), “about 120 μg/lens”. In addition, the figures for the εPLL uptake in series [4] (500 ppm εPLL in TBS) and in series [4] (500 ppm εPLL in Tris-sorbitol) were 47 µg and 208 µg, respectively.

For the origin of these results see patent US9259350B2, “Ophthalmic devices for delivery of beneficial agents” (CooperVision International Holding Company, LP, priority 2012, dated 2016).
